The values that follow come from patent US11318137B2, “Quinazoline compounds as modulators of Ras signaling” (VANDERBILT UNIVERSITY, priority 2017, dated 2022).

The target in the experiment is T1, SOS-mediated nucleotide exchange on Ras (Homo sapiens, UniProt Q07889).
T1 sequence (Q07889 1-1333): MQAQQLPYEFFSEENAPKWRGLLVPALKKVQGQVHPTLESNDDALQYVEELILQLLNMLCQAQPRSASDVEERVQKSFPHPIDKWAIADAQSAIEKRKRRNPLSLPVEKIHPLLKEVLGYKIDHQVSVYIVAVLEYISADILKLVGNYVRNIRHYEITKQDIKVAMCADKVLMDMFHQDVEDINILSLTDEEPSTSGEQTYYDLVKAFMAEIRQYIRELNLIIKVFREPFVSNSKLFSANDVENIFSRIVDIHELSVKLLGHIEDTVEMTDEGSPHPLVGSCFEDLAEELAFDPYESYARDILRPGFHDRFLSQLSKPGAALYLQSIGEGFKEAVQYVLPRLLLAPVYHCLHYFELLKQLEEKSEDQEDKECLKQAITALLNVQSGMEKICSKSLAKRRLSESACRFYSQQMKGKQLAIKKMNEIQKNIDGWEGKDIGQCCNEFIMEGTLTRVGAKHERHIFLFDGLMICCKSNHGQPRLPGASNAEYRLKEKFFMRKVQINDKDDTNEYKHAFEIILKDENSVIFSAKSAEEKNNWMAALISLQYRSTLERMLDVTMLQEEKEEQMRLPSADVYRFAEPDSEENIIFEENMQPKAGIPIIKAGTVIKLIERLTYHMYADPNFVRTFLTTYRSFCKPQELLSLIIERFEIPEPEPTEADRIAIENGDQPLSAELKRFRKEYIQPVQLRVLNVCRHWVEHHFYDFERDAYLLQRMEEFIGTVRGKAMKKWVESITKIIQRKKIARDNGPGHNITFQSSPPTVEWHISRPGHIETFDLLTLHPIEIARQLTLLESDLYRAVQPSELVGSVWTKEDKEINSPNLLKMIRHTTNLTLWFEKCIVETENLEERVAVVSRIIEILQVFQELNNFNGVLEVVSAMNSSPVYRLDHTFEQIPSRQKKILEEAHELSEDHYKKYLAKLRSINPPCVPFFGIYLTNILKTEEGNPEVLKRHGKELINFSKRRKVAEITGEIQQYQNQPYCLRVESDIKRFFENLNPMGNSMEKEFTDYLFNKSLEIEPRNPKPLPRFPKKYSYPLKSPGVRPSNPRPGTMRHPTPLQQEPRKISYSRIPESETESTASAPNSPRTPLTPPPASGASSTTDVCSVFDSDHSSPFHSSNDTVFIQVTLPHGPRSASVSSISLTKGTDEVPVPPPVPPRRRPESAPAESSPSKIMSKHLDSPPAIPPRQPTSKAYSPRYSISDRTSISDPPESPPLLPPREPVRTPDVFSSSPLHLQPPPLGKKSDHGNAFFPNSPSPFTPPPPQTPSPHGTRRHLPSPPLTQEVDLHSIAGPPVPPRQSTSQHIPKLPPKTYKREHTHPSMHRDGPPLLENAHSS
Kind of experiment: SOS-mediated nucleotide exchange on Ras (BODIPY-GDP fluorescence). The following applies: Ras loaded with BODIPY-GDP, GTP and SOS added; EC50 from derived exchange rates. The class given is biochemical. On the procedure: A. SOS-Mediated Nucleotide Exchange on Ras
Compounds of the present invention were tested for their ability to modify the rate at which Ras exchanges a labeled nucleotide guanosine diphosphate (GDP) analog for guanosine triphosphate (GTP). Briefly, test compounds, then GTP and the Ras GEF SOS (Son of Sevenless) are added to a buffered solution containing Ras protein loaded with BODIPY-GDP. Changes in fluorescence indicating exchange of the labeled GDP for GTP are monitored over time. Raw fluorescence data was fit to a single exponential decay function and derived rates were plotted as mean values. EC50 values were calculated by plotting mean derived rates as a function of compound concentration and fit using a four-parameter dose-response curve. Full assay details are disclosed in: Burns, M. C.; Sun, Q.; Daniels, R. N.; Camper, D. V.; Kennedy, J. P.; Phan, J.; Olejniczak, E. O.; Lee, T.; Waterson, A. G.; Rossanese, O. W.; Fesik, S. W. “Approach for targeting Ras with small molecules that activate SOS-mediated nucleotide exchange” Proc. Natl. Acad. Sci. 2014; 11(9): 3401-3406. PMCID: PMC3948241.
In turn, `C[C@@H](Nc1nc(Nc2cc(F)c(F)c(F)c2)nc2ccccc12)C1CC1` [Example 6, (R)—N^4-(1-cyclopropylethyl)-N^2-(3,4,5-trifluorophenyl)quinazoline-2,4-diamine] showed an EC50 of 5 to 30 µM.
As for `FC(F)(F)Oc1cccc(Nc2nc(NCc3cccs3)c3ccccc3n2)c1` [Example 7, N^4-(thiophen-2-ylmethyl)-N^2-(3-(trifluoromethoxy)phenyl)quinazoline-2,4-diamine], the figure is 5 to 30 µM; as for `FC(F)(F)c1cccc(Nc2nc(NCc3ccco3)c3ccccc3n2)c1` [Example 8, N^44-(furan-2-ylmethyl)-N^2-(3-(trifluoromethyl)phenyl)quinazoline-2,4-diamine], 5 to 30 µM; as for `c1coc(CNc2nc(Nc3ccc4c(c3)CCC4)nc3ccccc23)c1` [Example 10, N^2-(2,3-dihydro-1H-inden-5-yl)-N^4-(furan-2-ylmethyl)quinazoline-2,4-diamine], 5 to 30 µM.
`c1coc(CNc2nc(Nc3ccc4[nH]nnc4c3)nc3ccccc23)c1` [Example 11, N^2-(1H-benzo [d][1,2,3]triazol-5-yl)-N^4-(furan-2-ylmethyl)quinazoline-2,4-diamine] had an EC50 of more than 30 µM.
As for `COc1cccc(CNc2nc(NCc3ccco3)c3ccccc3n2)c1` [Example 12, N^4-(furan-2-ylmethyl)-N^2-(3-methoxybenzyl)quinazoline-2,4-diamine], the figure is 5 to 30 µM; as for `Oc1cccc(Nc2nc(NCc3cccs3)c3ccccc3n2)c1` [Example 13, 3-((4-((thiophen-2-ylmethyl)amino)quinazolin-2-yl)amino)phenol], 5 to 30 µM.
In turn, `Cc1ccc(CNc2nc(Nc3ccc(F)c(Cl)c3)nc3ccccc23)o1` [Example 15, N^2-(3-chloro-4-fluorophenyl)-N^4-((5-methylfuran-2-yl)methyl)quinazoline-2,4-diamine] showed an EC50 of 5 to 30 µM.
As for `CCC(C)CNc1nc(Nc2ccc(F)c(Cl)c2)nc2ccccc12` (centres unmarked) [Example 16, N^2-(3-chloro-4-fluorophenyl)-N^4-(2-methylbutyl)quinazoline-2,4-diamine], the figure is 5 to 30 µM; as for `c1ccc2c(NCC3CC3)nc(NCC3CCC3)nc2c1` [Example 17, N^2-(cyclobutylmethyl)-N^4-(cyclopropylmethyl)quinazoline-2,4-diamine], 5 to 30 µM; as for `c1ccc2c(NCC3CC3)nc(NCC3CCCO3)nc2c1` (centres unmarked) [Example 18, N^4-(cyclopropylmethyl)-N^2-((THF-2-yl)methyl)quinazoline-2,4-diamine], more than 30 µM.
The value for `CC(C)[C@@H](C)Nc1nc(Nc2cc(F)cc(F)c2)nc2ccccc12` [Example 20, (R)—N^2-(3,5-difluorophenyl)-N^4-(3-methylbutan-2-yl)quinazoline-2,4-diamine] was 5 to 30 µM; that for `C[C@@H](Nc1nc(NCc2cccc(Cl)c2F)nc2ccccc12)C1CC1` [Example 25, (R)—N^2-(3-chloro-2-fluorobenzyl)-N^4-(1-cyclopropylethyl)quinazoline-2,4-diamine] was 1 to 5 µM.
Regarding `Cc1cccc(CNc2nc(N[C@H](C)C3CC3)c3ccccc3n2)c1F` [Example 26, (R)—N^4-(1-cyclopropylethyl)-N^2-(2-fluoro-3-methylbenzyl)quinazoline-2,4-diamine], the EC50 was 1 to 5 µM.
With `C[C@@H](Nc1nc(NCc2cccc(C(F)(F)F)c2)nc2ccccc12)C1CC1` [Example 28, (R)—N^4-(1-cyclopropylethyl)-N^2-(3-(trifluoromethyl)benzyl)quinazoline-2,4-diamine], the EC50 was 5 to 30 µM.
The compound `C[C@@H](Nc1nc(NCc2ccccc2F)nc2ccccc12)C1CC1` [Example 29, (R)—N^4-(1-cyclopropylethyl)-N^2-(2-fluorobenzyl)quinazoline-2,4-diamine] yielded an EC50 of 5 to 30 µM.
As for `C[C@@H](Nc1nc(Nc2ccc(F)c(Cl)c2F)nc2ccccc12)C1CC1` [Example 30], the figure is 5 to 30 µM; as for `CCC(CC)CNc1nc(Nc2ccc(F)c(Cl)c2)nc2ccccc12` [Example 31, N^2-(3-chloro-4-fluorophenyl)-N^4-(2-ethylbutyl)quinazoline-2,4-diamine], 1 to 5 µM.
The value for `c1ccc(CNc2nc(Nc3ccccc3)nc3ccccc23)cc1` [Example 33, N^4-benzyl-N^2-phenylquinazoline-2,4-diamine] was 5 to 30 µM; that for `C[C@@H](Nc1nc(Nc2cc(F)cc(F)c2)nc2ccccc12)C(C)(C)C` [Example 41, (R)—N^2-(3,5-difluorophenyl)-N^4-(3,3-dimethylbutan-2-yl)quinazoline-2,4-diamine] was 1 to 5 µM; that for `C[C@@H](Nc1nc(Nc2ccc(F)c(Cl)c2)nc2ccccc12)C1CCCC1` [Example 43, (R)—N^2-(3-chloro-4-fluorophenyl)-N^4-(1-cyclopentylethyl)quinazoline-2,4-diamine] was 1 to 5 µM.
The value for `CC[C@@H](Nc1nc(Nc2ccc(F)c(Cl)c2)nc2ccccc12)C1CCCC1` [Example 44, (R)—N^2-(3-chloro-4-fluorophenyl)-N^4-(1-cyclopentylpropyl)quinazoline-2,4-diamine] was more than 30 µM.
With `Fc1ccc(Nc2nc(N[C@@H](C3CC3)C(F)(F)F)c3ccccc3n2)cc1Cl` [Example 45, (S)—N^2-(3-chloro-4-fluorophenyl)-N^4-(1-cyclopropyl-2,2,2-trifluoroethyl)quinazoline-2,4-diamine], the EC50 is more than 30 µM.
As for `C[C@@H](Nc1nc(Nc2ccc(F)c(Cl)c2)nc2c(Br)cccc12)C1CC1` [Example 46, (R)-8-bromo-N^2-(3-chloro-4-fluorophenyl)-N-(1-cyclopropylethyl)quinazoline-2,4-diamine], the figure is more than 30 µM; as for `C[C@@H](Nc1nc(Nc2ccc(F)c(Cl)c2)nc2c(C3CNC3)cccc12)C1CC1` [Example 61, (R)-8-(azetidin-3-yl)-N^2-(3-chloro-4-fluorophenyl)-N^4-(1-cyclopropylethyl)quinazoline-2,4-diamine], 1 to 5 µM; as for `C[C@@H](Nc1nc(Nc2ccc(F)c(Cl)c2)nc2c(C3=CCNCC3)cccc12)C(C)(C)C` [Example 79, (R)—N^2-(3-chloro-4-fluorophenyl)-N^4-(3,3-dimethylbutan-2-yl)-8-(1,2,3,6-tetrahydropyridin-4-yl)quinazoline-2,4-diamine], 5 to 30 µM.
As for `Cc1cc(F)cc(Nc2nc(N[C@H](C)C(C)(C)C)c3cccc(C4=CCNCC4)c3n2)c1` [Example 80, (R)—N^4-(3,3-dimethylbutan-2-yl)-N^2-(3-fluoro-5-methylphenyl)-8-(1,2,3,6-tetrahydropyridin-4-yl)quinazoline-2,4-diamine], the figure is 1 to 5 µM; as for `Cc1cc(F)cc(Nc2nc(N[C@H](C)C(C)(C)C)c3cccc(CCN)c3n2)c1` [Example 83, (R)-8-(2-aminoethyl)-N^4-(3,3-dimethylbutan-2-yl)-N^2-(3-fluoro-5-methylphenyl)quinazoline-2,4-diamine], 1 to 5 µM.
The value for `C[C@@H](Nc1nc(Nc2ccc(F)c(Cl)c2)nc2c(C3=CCNCC3)cccc12)c1cccs1` [Example 88, (R)—N^2-(3-chloro-4-fluorophenyl)-8-(1,2,3,6-tetrahydropyridin-4-yl)-N^4-(1-(thiophen-2-yl)ethyl)quinazoline-2,4-diamine] was 1 to 5 µM.
